The values that follow come from patent US6090825A, “Oxazole derivatives as antagonists of alpha 1C andrenergic receptors” (Glaxo Wellcome Inc., priority 1994, dated 2000).

Structures can show the parent of a compound that is named as a salt.

In one series the test system is diastolic blood pressure. Briefly: Canine model: inhibition of phenylephrine response on diastolic blood pressure in anesthetized dog. The conditions noted are these: Canis lupus familiaris, iv, dose (salt) producing 50% inhibition of agonist (phenylephrine) response on diastolic blood pressure, cumulative i.v. infusion, read-out: BP ED50. The series is classed as in vivo, male mongrel dogs. The protocol: (§1) A. CANINE URETHRAL-PROSTATE PRESSURE
(§2) To evaluate the ability of compounds to affect urethral-prostate pressure (contractility) while assessing their cardiovascular effects simultaneously.
Using hypogastric nerve stimulation (NS) and the .varies.-1 agonist phenylephrine (or other receptor agonists, as appropriate) the responses of urethral pressures and systemic blood pressure are recorded. The tests compounds are then given in a log dose infusion. The inhibition of the NS response within the prostate as well as the systemic phenylephrine response on blood pressure is measured to assess the uro-selectivity of the compound in the anesthetized dog.
Interesting compounds are those that express uro-selectivity with a ratio of >100 for the urethral pressure vs diastolic blood pressure comparisons (BP.US). […]
(§3) 4. Rectal temperature is monitored and maintained at 37-39° C. with a heating pad. […]
(§4) 1. After a control period of at least 30 minutes and establishment of stable baselines of urethral and blood pressure are observed, the control responses to NS or phenylephrine bolus are recorded.
3. At a time point 5 minutes post NS a phenylephrine bolus (10 μg/kg) is given into the cephalic vein and changes in blood pressure are recorded. At least two NS and phenylephrine injections are performed and evaluated for their consistency, the second consistent stimulation is picked for the baseline value response. […]

For the next series, the system named is urethral pressure. Briefly: Canine urethral-prostate pressure: inhibition of hypogastric nerve stimulation response in anesthetized dog. Type of series: in vivo, male mongrel dogs. The protocol: as §1, §2
Using hypogastric nerve stimulation (NS) and the .varies.-1 agonist phenylephrine (or other receptor agonists, as appropriate) the responses of urethral pressures and systemic blood pressure are recorded. The tests compounds are then given in a log dose infusion. The inhibition of the NS response within the prostate as well as the systemic phenylephrine response on blood pressure is measured to assess the uro-selectivity of the compound in the anesthetized dog. […]
as §3
3. […] The effects of either nerve stimulation (NS) or IV phenylephrine can be evaluated.
as §4
2. A hypogastric nerve stimulation of 16 Hertz, 10 Volts, 10 msec pulse width and 10 sec train duration are given and changes in urethral pressures are recorded.
3. At a time point 5 minutes post NS a phenylephrine bolus (10 μg/kg) is given into the cephalic vein and changes in blood pressure are recorded. […]

For a further series, the system named is male Wistar rats. In words: Behavioural and autonomic observation after oral dosing in rats. The series is classed as in vivo. The conditions noted are these: 10 mg/kg po. As to the method:
The compound of Example 13 was administered at 10 mg/kg (po) to male Wistar rats.

A short description of series [1]: Crystal form stability and hygroscopicity. Type of series: physicochemical. As to the method: Compounds of the present invention can exist in more than one crystalline form. For example, crystalline forms may vary from solvate to solvate. Compounds of the present invention encompass all possible crystalline forms. In particular, for example, 5-(2-{4-[5-(4-fluorophenyl)-4-(2,2,2-trifluoroethoxymethyl)-oxazol-2-yl}-ethyl)-2-methoxybenzenesulfonamide hydrochloride exists in four known crystal forms. Form I melts around 145° C. and converts to Form III which has a melting point around 200° C.

A word on the ED50: it is the midpoint of the dose-response relation. Consider `COc1ccc(CCN2CCC(c3nc(COCC(F)(F)F)c(-c4ccc(F)cc4)o3)CC2)cc1S(N)(=O)=O` [Example 12, 2-Methoxy-5-(2-{4-[5-(4-fluoro-phenyl)-4-(2,2,2-trifluoro-ethoxymethyl)-oxazol-2-yl]-piperidin-1-yl}-ethyl)-benzenesulfonamide], for which the 50% effective dose (ED50) in the series with diastolic blood pressure amounted to 7.15 mg/kg; in the series with urethral pressure (Canis lupus familiaris, iv, dose (salt) producing 50% inhibition of nerve stimulation response on urethral pressure, cumulative i.v. infusion, anesthetized dog, read-out: UP ED50), 0.013 mg/kg. Moreover, the BP/UP with urethral pressure (ratio of the BP ED50 to the UP ED50, uro-selectivity) stood at 550.

Take `COc1ccc(CCN2CCC(c3nc(COCC(F)(F)F)c(-c4ccc(F)cc4)o3)CC2)cc1S(N)(=O)=O` [Example 13, 5-(2-{4-[5-(4-fluorophenyl)-4-(2,2,2-trifluoroethoxymethyl)-oxazol-2-yl}-ethyl)-2-methoxybenzenesulfonamide hydrochloride]: the “animals' appearance by 24 hours after dosing” value in the series with male Wistar rats (24 hours) is recorded as “all animals appeared normal by 24 hours after dosing”. Further, in the series on male Wistar rats (between 1 and 4 hours after dosing), the ptosis result was “Slight to moderate ptosis was observed”. Also, in series [1] (below 70% relative humidity), the hygroscopicity entry is reported as “non-hydgroscopic”; the “solid state and chemical stability” value is “good solid state and chemical stability”. The “conversion of crystal form” value in series [1] (greater than 70% relative humidity) is “converts to form IV”.

`COc1ccc(CCN2CCC(c3nc(COCC(F)(F)F)c(-c4ccc(F)cc4)o3)CC2)cc1S(N)(=O)=O` [Form I, 5-(2-{4-[5-(4-fluorophenyl)-4-(2,2,2-trifluoroethoxymethyl)-oxazol-2-yl}-ethyl)-2-methoxybenzenesulfonamide hydrochloride]: in series [1] (room temperature, aqueous media), the “conversion of crystal form” value was “convert to a hydrated form (Form IV)”.

Consider `COc1ccc(CCN2CCC(c3nc(COCC(F)(F)F)c(-c4ccc(F)cc4)o3)CC2)cc1S(N)(=O)=O` [Form IV, 5-(2-{4-[5-(4-fluorophenyl)-4-(2,2,2-trifluoroethoxymethyl)-oxazol-2-yl}-ethyl)-2-methoxybenzenesulfonamide hydrochloride], for which the “conversion of crystal form” value in series [1] (upon separation from the aqueous media) was “readily converts to an anhydrous form (Form II)”.
